In brackets after ≈: the same amount, converted by molar mass.
What was measured:
[1] = Solubility and stability in tert-butanol and Kollidon-TBA vehicles by HPLC; assay type: physicochemical
Procedure: Salinosporamide A solubility was determined in 100% tert-butanol (TBA) and in TBA containing 3% (w/v) Kollidon 12 PF and 3% (w/v) Kollidon 17 PF, respectively. Both Kollidons can dissolve in TBA at approximately 4% (w/v). 3% Kollidon can serve as the bulking agent to support a lyophilization preparation. Salinosporamide A was added and saturated in the vehicles at ambient room temperature overnight. Salinosporamide A solutions were filtered and analyzed by HPLC to determine the solubility.

[2] = Chemical stability of the API
[3] = Salinosporamide A in-situ phase solubility and stability in H2O-TBA; assay type: physicochemical; conditions: for HPLC Assay (% Purity): room temp.
Procedure: Salinosporamide A in-situ phase solubility and stability were determined in 10, 20 and 30% H2O-TBA (v/v) solutions. Salinosporamide A was prepared at 2 mg/mL in TBA as a stock solution. HPLC water was spiked into the Salinosporamide A solution aliquot to make up the equivalent 10, 20 and 30% H2O-TBA solutions at room temperature. Each drug solution was mixed and immediately filtered. The filtrate was collected as time zero sample and analyzed by HPLC at real time to avoid drug degradation. The filtrate was subsequently sampled and filtered at 4, 24 and 48 hr to monitor drug stability at ambient room temperature.

Compound: C[C@@]12OC(=O)[C@]1([C@@H](O)[C@@H]1C=CCCC1)NC(=O)[C@@H]2CCCl [Salinosporamide A]
- solubility ([1]; 3% Kollidon 12 PF-TBA): 4.9 mg/mL (≈ 15.6 mM)
- stability in solution ([1]; 3% Kollidon 12 PF-TBA and 3% Kollidon 17 PF-TBA, room temperature overnight): stable
- solubility ([1]; 3% Kollidon 17 PF-TBA): 4.2 mg/mL (≈ 13.4 mM)
- solubility ([1]; 100% TBA, ambient room temperature): 2 mg/mL (≈ 6.37 mM)
- stability in solution ([1]; 100% TBA, ambient room temperature overnight): stable
- stability in aqueous solution ([2]; neutral and basic pH values): labile
- time API is stable ([2]; stored at −20° C. desiccated): at least 12 months
- bulk solution stability ([3]; 1 mg/mL in 10-30% H2O-TBA co-solvent systems, room temperature): stable
- HPLC Assay (% Purity) ([3]; 10% H2O-TBA, 0 hr): 100.0%
- HPLC Assay (% Purity) ([3]; 10% H2O-TBA, 4 hr): 99.5%
- HPLC Assay (% Purity) ([3]; 10% H2O-TBA, 24 hr): 99.8%
- HPLC Assay (% Purity) ([3]; 10% H2O-TBA, 48 hr): 99.7%
- HPLC Assay (% Purity) ([3]; 20% H2O-TBA, 0 hr): 100.0%
- HPLC Assay (% Purity) ([3]; 20% H2O-TBA, 4 hr): 99.8%
- HPLC Assay (% Purity) ([3]; 20% H2O-TBA, 24 hr): 99.8%
- HPLC Assay (% Purity) ([3]; 20% H2O-TBA, 48 hr): 99.7%
- HPLC Assay (% Purity) ([3]; 30% H2O-TBA, 0 hr): 100.0%
- HPLC Assay (% Purity) ([3]; 30% H2O-TBA, 4 hr): 99.8%
- HPLC Assay (% Purity) ([3]; 30% H2O-TBA, 24 hr): 99.5%
- HPLC Assay (% Purity) ([3]; 30% H2O-TBA, 48 hr): 99.3%
